Data: paper PMC9150102 (Journal of Medicinal Chemistry, 2022)

Assays:
[1] = molecular target: T1, SERCA1 (Cavia porcellus, UniProt H0UXI0); experiment: SERCA1 ATPase activity in PLN-free skeletal muscle microsomes; assay type: biochemical, guinea pig; settings: 30 to 1000 nM
T1 construct: from tissue; host or cells: adult male guinea pig fast-twitch hind leg muscle, SR microsomes
Protocol: (§1) Data are the mean ± SEM. *p < 0.05 (one-way RM ANOVA plus post hoc Tukey’s multiple comparisons or paired t-test).
(§2) Measurements were performed in cardiac SR microsomes (guinea pig) and in whole tissue homogenates (rat). Cardiac preparations included SERCA2a and PLN. To test for PLN involvement in the effect of compounds, SERCA1 activity was measured in PLN-free microsomes (from guinea pig skeletal muscle) before and after reconstitution with the synthetic PLN1–32 inhibitory fragment at a ratio of 300:1 for PLN/SERCA. […] Either an increase in Vmax (rat) or a decrease in KdCa (increased Ca^2+ affinity) (guinea pig) stands for enhancement of SERCA function.
(§3) (rats). As verified by Western blot, cardiac microsomes preparations included SERCA2a and PLN and skeletal muscle ones included SERCA1 only.
(§4) SERCA stimulation4, compounds were also tested on SERCA1 in microsomes of guinea-pig skeletal muscle (PLN-free) before and after reconstitution with the PLN1-32 inhibitory fragment at a ratio of 300:1 […]
SERCA2a ATPase activity was measured as the rate of 32P-ATP release at multiple Ca2+ concentrations (100-2000 nM) in the absence and presence of tested compounds, as previously described5. […] 32P was separated by centrifugation with activated charcoal (Norit A, Serva) and the radioactivity was measured. […]

[2] = Acute toxicity (LD50) in mice; settings: male, Albino Swiss CD-1, mouse, in vivo
Protocol: Acute toxicity (LD50) was preliminarily evaluated in mice following i.v. and oral drug administration.
Control animals received the vehicle only.
Drug toxicity studies in mice
Acute toxicity was determined in CD1 mice. Separate mice groups were either orally treated, or
intravenously injected, with increasing doses of the tested substance to identify the dose causing 50%
mortality (LD50). Acute mortality was assessed at 30 min after compound administration; survival was

[3] = molecular target: T2, SERCA2a (Rattus norvegicus, UniProt P11507); experiment: SERCA2a ATPase activity in cardiac homogenates from diabetic (STZ) rats; assay type: biochemical
T2 construct: tissues from healthy and STZ rats were homogenized; from tissue; host or cells: Sprague Dawley rat left ventricle homogenates (healthy or STZ-diabetic)
Protocol: as §2, §3, §4
(§5) Left ventricles (LV) were dissected from rat and guinea -pig of healthy and failing preparations and frozen until use. Tissues were homogenized, subjected to centrifugation to obtain SR -enriched microsomes and sarcomeric proteins were extracted, as previously described 4.
(§6) In the case of guinea-pig hearts, LV tissues were homogenized in 4 volumes of 10 mM NaHCO3, 1 mM PMSF, 10 μg/ml aprotinin and leupeptin (pH 7) and centrifuged at 12,000g for 15 minutes. Supernatants were filtered and centrifuged at 100,000 g for 30 min. Contractile proteins were extracted by suspending the pellets with 0.6 M KCl, 30 mM histidine, pH 7 and further centrifugation at 100,000 g for 30 min.
(§7) Final pellets were reconstituted with 0.3 M sucrose, 30 mM histidine, pH 7, to obtain SR-enriched […]
In the case of rat hearts, cardiac homogenates were used to have sufficient material to replicate the experiments within a single animal. Hearts were excised from rats eight weeks after STZ injection. LV tissues from healthy and STZ rats were homogenized (1 g in 4 ml buffer) in a medium containing 300 mM sucrose, 50 mM K-phosphate, 10 mM NaF, 0.3 mM PMSF, 0.5 mM DTT, pH 7, and centrifuged at 35,000 g for 30 min. The final pellet was resuspended in the same buffer.
SERCA2a ATPase activity was measured as the rate of 32P-ATP release at multiple Ca2+ concentrations (100-2000 nM) in the absence and presence of tested compounds, as previously described5. Increasing concentrations of each compound were pre-incubated with 2 μg of cardiac preparations for 5 min at 4° C in 80 μl of a solution containing 100 mM KCl, 5 mM MgCl2, 1 μM A23187, 20 mM Tris, pH 7.5. Then, 20 μl of 5 mM Tris-ATP containing 50 nCi of 32P-ATP (3-10 Ci/mmol, Perkin Elmer) were added. […] 32P was separated by centrifugation with activated charcoal (Norit A, Serva) and the radioactivity was measured. […]

[4] = test system: SERCA1 reconstituted with PLN1–32 fragment; experiment: SERCA1 ATPase activity after reconstitution with PLN1-32 fragment; assay type: biochemical, guinea pig; settings: 30 to 1000 nM
Protocol: as §1, §2, §3, §4
Tissues were homogenized, subjected to centrifugation to obtain SR -enriched microsomes and sarcomeric proteins were extracted, as previously described 4.
as §6, §7
(§8) SERCA2a ATPase activity was measured as the rate of 32P-ATP release at multiple Ca2+ concentrations (100-2000 nM) in the absence and presence of tested compounds, as previously described5. Increasing concentrations of each compound were pre-incubated with 2 μg of cardiac preparations for 5 min at 4° C in 80 μl of a solution containing 100 mM KCl, 5 mM MgCl2, 1 μM A23187, 20 mM Tris, pH 7.5. Then, 20 μl of 5 mM Tris-ATP containing 50 nCi of 32P-ATP (3-10 Ci/mmol, Perkin Elmer) were added. The ATP hydrolysis was continued for 15 min at 37°C and the reaction was stopped by acidification with 100 μl of 20% ice-cold perchloric acid. 32P was separated by centrifugation with activated charcoal (Norit A, Serva) and the radioactivity was measured. SERCA2a-dependent ATPase activity was identified as the portion of total hydrolytic activity inhibited by cyclopiazonic acid (CPA, 10 µM). Technical replicates were used to ensure the reliability of single values.
Reconstitution of SERCA1 with PLN1-32 synthetic fragment
Adult healthy male guinea-pigs were used to prepare SERCA1-enriched SR microsomes from fast-twitch hind leg muscles. Microsomes were prepared as described for SERCA2a preparations. For reconstitution experiments, SERCA1 (PLN-free) was pre-incubated with synthetic PLN1-32 fragment (canine sequence, Biomatik Corporation, Canada) in 20 mM imidazole, pH 7, at 1:300 SERCA1:PLN ratio for 30 min at room temperature. After pre-incubation, SERCA1 (PLN-free) alone, or reconstituted with PLN1-32 […]
fragment, was utilized for SERCA activity measurement by using 32P-ATP hydrolysis method at different

[5] = molecular target: T3, SERCA2a (Cavia porcellus, UniProt A0A286XFU8); experiment: SERCA2a ATPase activity, Ca2+ dependency in cardiac SR microsomes from healthy guinea pigs; assay type: biochemical, guinea pig; settings: for SERCA2a KdCa reduced by / SERCA2a Vmax: 1 nM
T3 construct: from tissue; host or cells: guinea pig left ventricle, SR-enriched microsomes
Protocol: SERCA2a ATPase activity was assessed in SR preparations from healthy guinea pig hearts. Ca^2+ dependency of ATPase activity was measured, and kinetic parameters (KdCa and Vmax) were estimated at compound concentrations of 10 and 100 nM.
[…] […] Data are the mean ± SEM. *p < 0.05 (one-way RM ANOVA plus post hoc Tukey’s multiple comparisons or paired t-test).
as §2, with “function. […]” for “function.”
as §5, §6, §7
as §8, with “values. […]” for “values.”

T3 sequence (A0A286XFU8 entry or part of it): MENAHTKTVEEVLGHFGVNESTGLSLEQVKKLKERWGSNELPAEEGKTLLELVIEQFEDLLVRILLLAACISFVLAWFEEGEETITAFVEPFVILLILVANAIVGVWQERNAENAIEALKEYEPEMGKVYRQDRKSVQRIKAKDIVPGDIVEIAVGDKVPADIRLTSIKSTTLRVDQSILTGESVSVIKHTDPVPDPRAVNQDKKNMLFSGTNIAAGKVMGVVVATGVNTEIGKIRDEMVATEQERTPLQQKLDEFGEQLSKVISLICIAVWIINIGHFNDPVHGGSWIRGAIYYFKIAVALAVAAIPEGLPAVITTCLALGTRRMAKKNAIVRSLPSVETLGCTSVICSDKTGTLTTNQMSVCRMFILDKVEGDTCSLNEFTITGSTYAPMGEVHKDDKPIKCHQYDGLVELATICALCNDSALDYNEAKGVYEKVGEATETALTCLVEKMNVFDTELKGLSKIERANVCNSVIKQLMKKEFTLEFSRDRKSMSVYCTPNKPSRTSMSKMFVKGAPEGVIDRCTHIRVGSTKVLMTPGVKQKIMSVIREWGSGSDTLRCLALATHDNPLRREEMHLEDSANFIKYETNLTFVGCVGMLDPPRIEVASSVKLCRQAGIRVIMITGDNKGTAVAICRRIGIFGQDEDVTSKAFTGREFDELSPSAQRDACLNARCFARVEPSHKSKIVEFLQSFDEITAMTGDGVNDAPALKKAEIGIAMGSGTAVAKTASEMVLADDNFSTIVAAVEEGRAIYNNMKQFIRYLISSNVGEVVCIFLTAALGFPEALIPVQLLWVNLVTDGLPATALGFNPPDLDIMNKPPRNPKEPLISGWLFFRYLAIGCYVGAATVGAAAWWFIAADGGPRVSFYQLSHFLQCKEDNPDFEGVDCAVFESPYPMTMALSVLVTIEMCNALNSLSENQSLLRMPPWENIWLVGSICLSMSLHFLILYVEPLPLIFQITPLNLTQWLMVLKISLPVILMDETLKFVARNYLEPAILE
T2 sequence (P11507 1-997 isoform P11507-2): as the sequence (A0A286XFU8 entry or part of it) above, with V219A, M392I, H396Q, I402V, V470A, L535P, A713S, V889I counted along it
T1 sequence (H0UXI0 1-1001): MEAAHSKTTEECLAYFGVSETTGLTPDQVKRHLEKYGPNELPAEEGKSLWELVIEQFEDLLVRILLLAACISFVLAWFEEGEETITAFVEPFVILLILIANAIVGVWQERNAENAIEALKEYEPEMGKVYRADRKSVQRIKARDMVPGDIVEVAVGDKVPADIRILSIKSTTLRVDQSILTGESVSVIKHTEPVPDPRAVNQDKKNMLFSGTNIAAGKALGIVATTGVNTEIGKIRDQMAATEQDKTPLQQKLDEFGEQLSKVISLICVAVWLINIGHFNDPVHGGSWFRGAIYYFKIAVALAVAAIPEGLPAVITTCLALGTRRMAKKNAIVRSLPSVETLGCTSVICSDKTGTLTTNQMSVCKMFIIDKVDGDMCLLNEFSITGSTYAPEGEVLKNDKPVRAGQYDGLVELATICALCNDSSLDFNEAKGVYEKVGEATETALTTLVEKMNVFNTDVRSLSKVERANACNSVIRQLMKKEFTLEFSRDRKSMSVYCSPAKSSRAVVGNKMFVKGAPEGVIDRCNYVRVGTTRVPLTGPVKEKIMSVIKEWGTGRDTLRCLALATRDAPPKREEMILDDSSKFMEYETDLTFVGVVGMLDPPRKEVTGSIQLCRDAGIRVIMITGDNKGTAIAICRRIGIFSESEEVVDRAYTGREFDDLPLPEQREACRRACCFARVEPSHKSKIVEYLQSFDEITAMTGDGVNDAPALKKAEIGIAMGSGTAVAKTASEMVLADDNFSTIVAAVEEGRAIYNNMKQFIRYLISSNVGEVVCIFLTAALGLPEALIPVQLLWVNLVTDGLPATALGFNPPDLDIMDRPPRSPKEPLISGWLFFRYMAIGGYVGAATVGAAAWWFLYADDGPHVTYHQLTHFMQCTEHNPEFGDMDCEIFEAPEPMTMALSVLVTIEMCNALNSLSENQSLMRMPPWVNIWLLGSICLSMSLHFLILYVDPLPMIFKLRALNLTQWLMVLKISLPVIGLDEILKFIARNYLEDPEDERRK

SMILES	skeletal SERCA1 activity in the absence of PLN [1]	LD50 at 24 h ([2]; iv)	LD50 at 24 h ([2]; po)	SERCA2a Vmax increase ([3]; 300 nM)	SERCA2a Vmax increase ([3]; 500 nM)	SERCA1 KdCa after reconstitution with PLN1–32 [4]	SERCA1 Vmax after reconstitution with PLN1–32 [4]	SERCA2a KdCa reduced by [5]	SERCA2a Vmax [5]	SERCA2a Stimulation @100 nM (DELTA% KdCa) ([5]; 100 nM)
C[C@]12CC[C@H](CCCC(=O)O)C[C@@H]1[C@@H](O)C[C@@H]1[C@@H]2CC[C@]2(C)C(=O)CC[C@@H]12 [Compound 5]	failed to affect	300 mg/kg	> 800 mg/kg	+26%	+25%	dose-dependently reversed the PLN-induced shift in KdCa	unchanged	16%	without affecting Vmax	-21%
C[C@]12CC[C@H](CC(=O)O)C[C@@H]1[C@@H](O)C[C@@H]1[C@@H]2CC[C@]2(C)C(=O)CC[C@@H]12 [Compound 8]	failed to affect			+17%	+28%	dose-dependently reversed the PLN-induced shift in KdCa	unchanged	14%	without affecting Vmax	
